From patent US20240059703A1 (AMGEN INC., priority 2021, published 2024) come the findings set out here.

pIC50: −log10 of the molar value.

Chain of KRAS G12C (P01116 other isoform, or with tags, fused parts or gaps G12C/C118A): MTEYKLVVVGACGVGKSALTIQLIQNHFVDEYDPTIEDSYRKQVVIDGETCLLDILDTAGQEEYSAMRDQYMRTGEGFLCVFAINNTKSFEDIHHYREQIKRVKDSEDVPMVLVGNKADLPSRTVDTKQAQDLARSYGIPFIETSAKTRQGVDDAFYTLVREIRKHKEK

For this assay, the target named is KRAS G12C (Homo sapiens (Human), UniProt P01116, C118A/G12C). In words: 2 h coupled exchange assay. Format: biochemical. The settings on record: Avg 2 h Coupled exchange IC50, 2 h compound pre-incubation, SOS-mediated nucleotide exchange. Here is the method:
The term “2 h coupled exchange assay” or “20 h coupled exchange assay” as used herein refers to the assay described in the Section entitled “BIOLOGICAL EVALUATION.”
In turn, `C=CC(=O)N1CC2(CCN(c3nc4c(c(-c5c(C)c(Cl)cc6cnn(C)c56)c3Cl)COC(C)(C)C4)C2)C1` (single isomer, unassigned) [Example 2-91, (P)-1-(6-(3-chloro-4-(5-chloro-1,6-dimethyl-1H-indazol-7-yl)-7,7-dimethyl-7,8-dihydro-5H-pyrano[4,3-b]pyridin-2-yl)-2,6-diazaspiro[3.4]octan-2-yl)-2-propen-1-one] gave a pIC50 of 5.54. To `C=CC(=O)N1CC2(CCN(c3cc4c(c(-c5c(C)ccc6[nH]ncc56)c3C#N)COCC4)C2)C1` (single isomer, unassigned) [Example 2-99, (M)-8-(5-methyl-1H-indazol-4-yl)-6-(2-(2-propenoyl)-2,6-diazaspiro[3.4]octan-6-yl)-3,4-dihydro-1H-2-benzopyran-7-carbonitrile] belongs 5.36; to `C=CC(=O)N1CC2(CCN(c3nc4c(c(-c5c(C)c(Cl)cc6[nH]ncc56)c3Cl)COC(C)(C)C4)C2)C1` (single isomer, unassigned) [Example 2-108, (M)-1-(6-(3-chloro-4-(6-chloro-5-methyl-1H-indazol-4-yl)-7,7-dimethyl-7,8-dihydro-5H-pyrano[4,3-b]pyridin-2-yl)-2,6-diazaspiro[3.4]octan-2-yl)-2-propen-1-one], 4.85; to `C=CC(=O)N1CC2(CCN(c3nc4c(c(-c5cc(Cl)cc6ccn(C)c56)c3C#N)COC(C)(C)C4)C2)C1` (single isomer, unassigned) [Example 12-9, (P)-4-(5-chloro-1-methyl-1H-indol-7-yl)-7,7-dimethyl-2-(2-(2-propenoyl)-2,6-diazaspiro[3.4]octan-6-yl)-7,8-dihydro-5H-pyrano[4,3-b]pyridine-3-carbonitrile], 6.35.

Regarding `C=CC(=O)N1CC2(CCN(c3nc4c(c(-c5cc(Cl)cc6ccn(C)c56)c3C#N)COC(C)(C)C4)C2)C1` (single isomer, unassigned) [Example 12-10, (M)-4-(5-chloro-1-methyl-1H-indol-7-yl)-7,7-dimethyl-2-(2-(2-propenoyl)-2,6-diazaspiro[3.4]octan-6-yl)-7,8-dihydro-5H-pyrano[4,3-b]pyridine-3-carbonitrile], the pIC50 was 5.13. Regarding `C=CC(=O)N1CC2(CCN(c3nc4c(c(-c5c(C)c(Cl)cc6cnn(C)c56)c3C)CCN(C(C)C)C4)C2)C1` (single isomer, unassigned) [Example 12-23, (P)-1-(6-(4-(5-chloro-1,6-dimethyl-1H-indazol-7-yl)-3-methyl-7-(2-propanyl)-5,6,7,8-tetrahydro-1,7-naphthyridin-2-yl)-2,6-diazaspiro[3.4]octan-2-yl)-2-propen-1-one], the pIC50 was 4.73. Under `C=CC(=O)N1CC2(CCN(c3nc4c(c(-c5c(C)c(Cl)cc6cnn(C)c56)c3C)CCN(C(C)C)C4)C2)C1` (single isomer, unassigned) [Example 12-24, (M)-1-(6-(4-(5-chloro-1,6-dimethyl-1H-indazol-7-yl)-3-methyl-7-(2-propanyl)-5,6,7,8-tetrahydro-1,7-naphthyridin-2-yl)-2,6-diazaspiro[3.4]octan-2-yl)-2-propen-1-one] stands 7.30. Turning to `C=CC(=O)N1CC2(CCN(c3nc4c(c(-c5c(F)cccc5[C@H](C)O)c3C#N)C[C@H]3C[C@@H]4C3(C)C)C2)C1` (single isomer, unassigned) [Example 12-36], the pIC50 is 6.36. Take `C=CC(=O)N1CC2(CCN(c3nc4c(c(-c5c(F)cccc5[C@@H](C)O)c3C#N)C[C@H]3C[C@@H]4C3(C)C)C2)C1` (single isomer, unassigned) [Example 12-37]: the pIC50 was 5.84. To `C=CC(=O)N1CC2(CCN(c3nc4c(c(-c5cc(O)cc6nccnc56)c3C#N)C[C@H]3C[C@@H]4C3(C)C)C2)C1` (single isomer, unassigned) [Example 12-39] belongs 5.41; to `C=CC(=O)N1CC2(CCN(c3nc4c(c(-c5cc(O)cc(Cl)c5C)c3C)COC(C)(C)C4)C2)C1` (single isomer, unassigned) [Example 12-44, (P)-1-(6-(4-(3-chloro-5-hydroxy-2-methylphenyl)-3,7,7-trimethyl-7,8-dihydro-5H-pyrano[4,3-b]pyridin-2-yl)-2,6-diazaspiro[3.4]octan-2-yl)prop-2-en-1-one], 4.96; to `C=CC(=O)N1CC2(CCN(c3nc4c(c(-c5c(C)ccc6cnn(C)c56)c3C#N)CC(C)(C)C4)C2)C1` (single isomer, unassigned) [Example 13-17, (M)-4-(1,6-dimethyl-1H-indazol-7-yl)-6,6-dimethyl-2-(2-(2-propenoyl)-2,6-diazaspiro[3.4]octan-6-yl)-6,7-dihydro-5H-cyclopenta[b]pyridine-3-carbonitrile], 4.70. The molecule `C=CC(=O)N1CC2(CCN(c3nc4c(c(-c5ccccc5Cl)c3C#N)CC(C)(C)C4)C2)C1` (single isomer, unassigned) [Example 13-24, (M)-4-(2-chlorophenyl)-6,6-dimethyl-2-(2-(2-propenoyl)-2,6-diazaspiro[3.4]octan-6-yl)-6,7-dihydro-5H-cyclopenta[b]pyridine-3-carbonitrile] showed a pIC50 of 5.74. To `C=CC(=O)N1CC2(CCN(c3nc4c(c(-c5ccccc5Cl)c3C#N)CC(C)(C)C4)C2)C1` (single isomer, unassigned) [Example 13-25, (P)-4-(2-chlorophenyl)-6,6-dimethyl-2-(2-(2-propenoyl)-2,6-diazaspiro[3.4]octan-6-yl)-6,7-dihydro-5H-cyclopenta[b]pyridine-3-carbonitrile] belongs 6.47; to `C=CC(=O)N1CC2(CCN(c3nc4c(c(-c5ccnn5C)c3C#N)CC[C@H](c3ccnn3C)C4)C2)C1` (single isomer, unassigned) [Example 13-28], 6.58. Under `C=CC(=O)N1CC2(CCN(c3nc4c(c(-c5ccnn5C)c3C#N)CC[C@@H](c3ccnn3C)C4)C2)C1` (single isomer, unassigned) [Example 13-29] stands 6.66; under `C=CC(=O)N1CC2(CCN(c3nc4c(c(-c5c(C)ccc6cnn(C)c56)c3C#N)C[C@H]3C[C@@H]4C3)[C@H]2C)C1` (single isomer, unassigned) [Example 13-31], 6.19.

As to `C=CC(=O)N1CC2(CCN(c3nc4c(c(-c5c(C)ccc6cnn(C)c56)c3C#N)C[C@H]3C[C@@H]4C3)[C@H]2C)C1` (single isomer, unassigned) [Example 13-32], the pIC50 is 4.19.

`C=CC(=O)N1CC2(CCN(c3nc4c(c(-c5c(O)ccc6ccccc56)c3C#N)C[C@H]3C[C@@H]4C3)C2)C1` (single isomer, unassigned) [Example 13-36] had a pIC50 of 6.00. For the molecule `C=CC(=O)N1CC2(CCN(c3nc4c(c(-c5c(O)ccc6ccccc56)c3C#N)C[C@H]3C[C@@H]4C3)C2)C1` (single isomer, unassigned) [Example 13-37], the pIC50 was 4.50.

Take `C=CC(=O)N1CC2(CCN(c3nc4c(c(-c5c(C)cccc5O)c3C#N)C[C@H]3C[C@@H]4C3)C2)C1` (single isomer, unassigned) [Example 13-39]: the pIC50 is 6.19. Consider `C=CC(=O)N1CC2(CCN(c3nc4c(c(-c5c(C)cccc5O)c3C#N)C[C@H]3C[C@@H]4C3)C2)C1` (single isomer, unassigned) [Example 13-40], for which the pIC50 was 4.47.

In turn, `C=CC(=O)N1CC2(CCN(c3nc4c(c(-c5cc(O)cc6ccccc56)c3C#N)COC(C)(C)C4)C2)C1` (single isomer, unassigned) [Example 13-42, (M)-4-(3-hydroxy-1-naphthalenyl)-7,7-dimethyl-2-(2-(2-propenoyl)-2,6-diazaspiro[3.4]octan-6-yl)-7,8-dihydro-5H-pyrano[4,3-b]pyridine-3-carbonitrile] showed a pIC50 of 4.63. Regarding `C=CC(=O)N1CC2(CCN(c3nc4c(c(-c5c(C)ccc6cnn(C)c56)c3C#N)COC4(C)C)C2)C1` (single isomer, unassigned) [Example 13-56, (P)-4-(1,6-dimethyl-1H-indazol-7-yl)-,7,7-dimethyl-2-(2-(2-propenoyl)-2,6-diazaspiro[3.4]octan-6-yl)-5,7-dihydrofuro[3,4-b]pyridine-3-carbonitrile], the pIC50 is 3.85.

In the case of `C=CC(=O)N1CC2(CCN(c3nc4c(c(-c5c(C)ccc6cnn(C)c56)c3C#N)COC4(C)C)C2)C1` (single isomer, unassigned) [Example 13-57, (M)-4-(1,6-dimethyl-1H-indazol-7-yl)-7,7-dimethyl-2-(2-(2-propenoyl)-2,6-diazaspiro[3.4]octan-6-yl)-5,7-dihydrofuro[3,4-b]pridine-3-carbonitrile], the pIC50 was 6.44. `C=CC(=O)N1CC2(CCN(c3nc4c(c(-c5c(C)ccc6cnn(C)c56)c3C#N)COC(C)(C)C4)C2)C1` (single isomer, unassigned) [Example 13-59, (M)-4-(1,6-dimethyl-1H-indazol-7-yl)-7,7-dimethyl-2-(2-(2-propenoyl)-2,6-diazaspiro[3.4]octan-6-yl)-7,8-dihydro-5H-pyrano[4,3-b]pyridine-3-carbonitrile] gave a pIC50 of 4.49. To `C=CC(=O)N1CC2(CCN(c3nc4c(c(-c5c(O)cccc5Cl)c3C#N)C[C@H]3C[C@@H]4C3)C2)C1` (single isomer, unassigned) [Example 13-66] belongs 4.12. To `C=CC(=O)N1CC2(CCN(c3nc4c(c(-c5c(O)cccc5Cl)c3C#N)C[C@H]3C[C@@H]4C3)C2)C1` (single isomer, unassigned) [Example 13-67] belongs 6.30; to `C=CC(=O)N1CC2(CCN(c3nc4c(c(-c5cc(O)cc6ccccc56)c3C#N)CC(C)(C)C4)C2)C1` (single isomer, unassigned) [Example 13-68, (M)-4-(3-hydroxy-1 naphthalenyl)-6,6-dimethyl-2-(2-(2-propenoyl)-2,6-diazaspiro[3.4]octan-6-yl)-6,7-dihydro-5H-cyclopenta[b]pyridine-3-carbonitrile], 4.57. To `C=CC(=O)N1CC2(CCN(c3nc4c(c(-c5cc(O)c(F)c6ccccc56)c3C#N)CC[C@H]3C[C@@H]43)C2)C1` (single isomer, unassigned) [Example 13-73] belongs 4.71.
